Results as given in patent publication US6902931B1 (priority 1998, dated 2005).

Assays:
in vitro = details: mouse, pH 7.4
[1] = test system: NIH/3T3 murine fibroblasts; details: mouse, pH 7.4
3T3 fibroblasts = assay: Volumetric response of porated cells in hypertonic sugar solution (sugar uptake); assay type: cell-based, murine
Experimental: Sugar may be added to the cell suspension in an HBS solution to the final desired concentration. Porated cells may be incubated in the sugar containing solution for 45 minutes. […] Of course the length of time required for sugar uptake may vary with the type of cell and the level of cell poration. Sugar uptake may be measured by both the uptake of radiolableled sugar into porated cells as well as by the volumetric response of porated cells placed in a hypertonic sugar solution, yielding statistically correlative results.
Following poration, 0-1.0 M trehalose (final concentration) in HBS solution (Sigma) was added to the cell suspension, as indicated in FIG. 4. To allow for trehalose uptake, porated cells were incubated in the solution for 45 min. […] [Russo et al., “Reversible permeabilization of plasma membranes with an engineered switchable pore,” Nature Biotech. 15, 278-282 (1997).] This uptake was measured by both the uptake of radiolableled sugar into porated cells as well as by the volumetric response of porated cells placed in a hypertonic sugar solution, yielding statistically correlative results. By repeating the volumetric experiments using hypertonic trehalose solutions and 25 μg/ml of porating agent, volumetric equilibration over 90% over a 45 min interval was achieved, indicating the equilibration of intracellular trehalose concentration with that of the suspending solution.

[2] = test system: NIH/3T3 murine fibroblasts; assay: Clonogenic assay; assay type: cell-based; details: post-thaw; H5 and 0.4 M trehalose; from approximately 200±12 plated cells, one week
Experimental: For each condition, approximately 200 of the cells that had plated in 3 hours were replated in a […] for one week. To obtain 200 fibroblasts, cells were diluted to 2×10^5 cells/ml, and 1 μl of cell solution was introduced into a P60 petri dish (Falcon) containing 12 ml of DMEM with BCS. After one week, cells were fixed by a 0.5% glutaraldehyde wash and stained by Rhodamine B (Sigma) to enhance colony visibility. The number of colonies formed was determined by visual inspection.

[3] = test system: NIH/3T3 murine fibroblasts
[4] = test system: NIH/3T3 murine fibroblasts; assay: Viability after vacuum drying and rehydration; assay type: cell-based; details: H5-porated; for protection of cells subjected to vacuum drying: 0.3 M sugar; for cells that successfully attached at three hours / survival rate: 0.3M sugar; for cells that successfully attached at three hours: vacuum dried 2 hours at ambient temperature, rehydrated; for survival rate: vacuum dried, adjusted for cell loss using control samples
Experimental: The efficacy of intracellular trehalose for vacuum dried fibroblasts was also tested. NIH/3T3 murine fibroblasts, prepared as in Example 1, were resuspended in phosphate buffered saline (PBS) solution and the cell density was counted. Cell density was then adjusted to 100,000 cells/ml by diluting with PBS and the sample was divided into three equal aliquots of 4.0 ml each. To each aliquot, 1.0 ml of 25 μg/ml H5 was added, reducing cell density to 8×10^4. The aliquots were incubated at room temperature for 15 minutes with occasional mixing.
In the first two aliquots, enough 1.0M stock solution of either trehalose or sucrose in PBS was added to obtain a final sugar concentration of 0.3M. In the third aliquot, an equivalent amount of PBS, without sugar, was added.
The three aliquots were dispersed in triplicate wells at 20 μl/well into four duplicate 12-well plates. Two of the twelve well plates were incubated at 37° C. and 10% CO2 as controls. The remaining two plates were vacuum dried for 2 hours at ambient temperature. After drying, the dried samples were rehydrated and the poration reversed with serum containing DMEM.
Viability assays were performed by counting attached cells at 3 hours, and cells that remained attached and divided during the next 24 hours. The experiments were repeated three times. […] Adjusting for cell loss due to handling, poration, etc. using the control samples, survival rates of 4% for the cells dried in trehalose and 3% for the cells dried in sucrose were obtained.

SMILES	viability (in vitro) [%]	viability and function after 1 hour [1]	trehalose concentration at which fibroblasts reach minimum volume (3T3 fibroblasts; data not shown)	volumetric equilibration (3T3 fibroblasts; hypertonic trehalose solutions, 25 μg/ml porating agent, 45 min interval)	colonies formed [2] [colonies]	additional loss of porated cells (18 hours growth) [3] [%]	fibroblasts withstanding osmotic shock (18 hours growth) [3]	higher than all control data to which trehalose was not added [3]	loss of population between 1 hour and 3h / 18 hours [3]	loss of viability or function [3]	population loss [3]	protection of cells subjected to vacuum drying [4]	cells that successfully attached at three hours [4] [cells]	survival rate [4] [%]
OC[C@H]1O[C@H](O[C@H]2O[C@H](CO)[C@@H](O)[C@H](O)[C@H]2O)[C@H](O)[C@@H](O)[C@@H]1O [Trehalose, trehalose]	10	70-80%	about 0.4 M	over 90%	211.6±5.2	10	over 95%	70-80%	over 60%	did not demonstrate a significant loss of viability	loss of half of their populations	effective in protecting cells subjected to vacuum drying	48±3	4
OC[C@H]1O[C@@](CO)(O[C@H]2O[C@H](CO)[C@@H](O)[C@H](O)[C@H]2O)[C@@H](O)[C@@H]1O [sucrose]												effective in protecting cells subjected to vacuum drying	36±3	3
